Test results: ChEMBL document CHEMBL1134893, “Novel 20-carbonate linked prodrugs of camptothecin and 9-aminocamptothecin designed for activation by tumour-associated plasmin” (2002)

How the values were obtained:
Type in all cases: functional
Conditions in all cases: read-out: ID50 (the source's name)
A498 = experiment: Inhibitory dose required against A498 human tumor cell lines
EVSA-T = experiment: Inhibitory dose required against EVSA-T human tumor cell lines
NCI-H226 = experiment: Inhibitory dose required against H226 human tumor cell lines
IGROV-1 = experiment: Inhibitory dose required against IGROV human tumor cell lines
M19-MEL = experiment: Inhibitory dose required against M19 human tumor cell lines
MCF7 = experiment: Inhibitory dose required against MCF-7 human tumor cell lines
WiDr = experiment: Inhibitory dose required against WIDR human tumor cell lines

SMILES	IC50 (A498)	IC50 (EVSA-T)	IC50 (NCI-H226)	IC50 (IGROV-1)	IC50 (M19-MEL)	IC50 (MCF7)	IC50 (WiDr)
CC[C@@]1(OC(=O)OCc2ccc(NC(=O)[C@H](CCCCN)NC(=O)[C@H](Cc3ccccc3)NC(=O)[C@@H](C)N)cc2)C(=O)OCc2c1cc1n(c2=O)Cc2cc3c(N)cccc3nc2-1.Cl.Cl.Cl	0.039 µg/mL	0.137 µg/mL	0.021 µg/mL	8 ng/mL	0.01 µg/mL	0.019 µg/mL	7 ng/mL
CC[C@@]1(OC(=O)OCc2ccc(NC(=O)[C@H](CCCCN)NC(=O)[C@H](Cc3ccccc3)NC(=O)[C@@H](C)N)cc2)C(=O)OCc2c1cc1n(c2=O)Cc2cc3ccccc3nc2-1.Cl.Cl	0.022 µg/mL	0.049 µg/mL	0.111 µg/mL	20 ng/mL	0.219 µg/mL	0.01 µg/mL	22 ng/mL
CC[C@@]1(O)C(=O)OCc2c1cc1n(c2=O)Cc2cc3c(N)cccc3nc2-1 [9-AMINOCAMPTOTHECIN]	< 0.01 µg/mL	< 0.0032 µg/mL	< 0.007 µg/mL	< 3.2 ng/mL	< 0.024 µg/mL	< 0.0032 µg/mL	< 3.2 ng/mL
CC[C@@]1(O)C(=O)OCc2c1cc1n(c2=O)Cc2cc3ccccc3nc2-1 [CAMPTOTHECIN]	< 0.0032 µg/mL	< 0.0032 µg/mL	< 0.005 µg/mL	< 3.2 ng/mL	< 0.013 µg/mL	< 0.0032 µg/mL	< 3.2 ng/mL
